# Source: patent US20220304958A1, “SMALL MOLECULE INHIBITORS OF A PROTEIN COMPLEX” (THE REGENTS OF THE UNIVERSITY OF CALIFORNIA, priority 2019, published 2022)
# pIC50: −log10 of the molar value. Read-outs that look alike come from different tables or passages of the source.
# Legend:
# KLF4 and KLF2 mRNA [1] = experiment: KLF4 and KLF2 mRNA expression in HUVEC by qPCR; type: cell-based, human; conditions: dose response, 24 hours
# Protocol: (§1) Cell culture. hCMEC/D3 cells at passages 30-37 were grown to confluence on collagen-coated plates and cultured using in EGM-2 MV medium and supplemented with complements obtained from the manufacturer (Lonza) as previously reported (31). HUVEC (Lonza) at passages 4-7 were grown to confluence on gelatin-coated plates and maintained using complete EGM-2 media (Lonza). HKi2, 10 mM in DMSO, was maintained at room temperature for 30 min rotating before use. Cells were then treated with HKi2 at the concentrations and times indicated for each experiment. Vehicle cells were treated with the same volume of DMSO as used with HKi2. Cells were maintained at 37° C. in 95% air and 5% CO2. RNA extraction and qRT-PCR. HUVECs total RNA were isolated using MagMAXTM-96 for Microarrays Total RNA Isolation Kit, according to the manufacturer's protocol (Thermo Fisher Scientific Cat #AM1839). qPCR analysis, single-stranded cDNA was produced from 10 ng RNA isolated from HUVECs using PrimeScriptTM RT Master Mix according to the manufacturer's protocol (Takara Cat. #R[…]). The levels of genes were analyzed using iTaqTM Universal SYBR Green (BioRad Cat #1725122) and thermal cycler (CFX96 Real-Time System; Bio-Rad) according to the manufacturer's protocol. Actin mRNA levels was used as internal control, and the 2^-ΔΔCT method was used for data analysis.
# KLF4 and KLF2 mRNA [2] = experiment: KLF4 and KLF2 mRNA expression in hCMEC/D3 cells by qPCR; type: cell-based, human
# Protocol: as §1
# klf2a = klf2a reporter Tg(klf2a:H2B-EGFP) zebrafish embryos; type: in vivo; conditions: 4 μM, 4 h, added at 26 hpf, imaged at 30 hpf
# Text: Zebrafish. A previously reported transgenic zebrafish line Tg(klf2a:H2B-EGFP) was used to monitor the expression of klf2a (32, 33). […] At 30 hpf, these treated embryos were scanned for EGFP expression by Zeiss LSM 880 Airiscan.
# PI3K/Akt signaling = PI3K/Akt signaling in hCMEC/D3 cells by Western blot; type: cell-based, human; conditions: hCMEC/D3, 50 μM, 1 h
# Protocol: Cell culture. hCMEC/D3 cells at passages 30-37 were grown to confluence on collagen-coated plates and cultured using in EGM-2 MV medium and supplemented with complements obtained from the manufacturer (Lonza) as previously reported (31). HUVEC (Lonza) at passages 4-7 were grown to confluence on gelatin-coated plates and maintained using complete EGM-2 media (Lonza). HKi2, 10 mM in DMSO, was maintained at room temperature for 30 min rotating before use. Cells were then treated with HKi2 at the concentrations and times indicated for each experiment. Vehicle cells were treated with the same volume of DMSO as used with HKi2. Cells were maintained at 37° C. in 95% air and 5% CO2. Western blotting and immunoprecipitation. […] Cell lysates were spun at 20,000×g for 15 minutes at 4° C. The PI3 Kinase was immunoprecipitated using the mouse monoclonal antibody as described in the manufacturer instructions and supernatants were stored at -80° C. Samples were resolved on 4-12% gradient gel and blotted using specific antibodies, as indicated. Band intensity was determined using a Li-Cor system and values obtained for phosphoproteins were normalized to the total protein in the same sample. Antibodies to phospho-Akt-Ser473 (clone: 193H12; rabbit mAb; #4058; 1:250), Akt (clone: 40D4; mouse mAb; #2920; 1:500), phospho-PI3 Kinase p85 […] (rabbit polyclonal; #4228; 1:500) were from Cell Signaling. […]
# HUVEC = experiment: Genome-wide RNA sequencing of HUVEC; type: cell-based, human; conditions: for effects on gene expression by RNA-Seq: same conditions (75 μM, 24 h)
# Protocol: Cell culture. hCMEC/D3 cells at passages 30-37 were grown to confluence on collagen-coated plates and cultured using in EGM-2 MV medium and supplemented with complements obtained from the manufacturer (Lonza) as previously reported (31). HUVEC (Lonza) at passages 4-7 were grown to confluence on gelatin-coated plates and maintained using complete EGM-2 media (Lonza). HKi2, 10 mM in DMSO, was maintained at room temperature for 30 min rotating before use. Cells were then treated with HKi2 at the concentrations and times indicated for each experiment. Vehicle cells were treated with the same volume of DMSO as used with HKi2. Cells were maintained at 37° C. in 95% air and 5% CO2. Genome-wide RNA sequencing. The quantity (ND-1000 spectrophotometer; NanoDrop Technologies) and quality (Bioanalyzer; Agilent) of total RNA were analyzed. Only RNA with a RNA integrity number (RIN) greater than 8 RNA was used for library preparation. Libraries were generated using Illumina's TruSeq Stranded mRNA Sample Prep kit using 400 ng RNA. RNA libraries were multiplexed and sequenced with 100-bp […] single-end reads (SR100) to a depth of 30 million reads per sample on an Illumina HiSeq2500. Fastq files from RNA-seq experiments were mapped to the human genome (GRCh primary assembly release 96) using Hisat2 with default parameters. All bioinformatics analyses were conducted in R using the […] package RNAseq workflows. Differential gene expression analysis was conducted with EdgeR.
# PARD3 binding to HEG1 = experiment: PARD3 pulldown assay with HEG1 matrix; parameters: species or system human (HUVEC lysates); conditions: 35 μM compound, HUVEC lysates, HEG1 WT matrix
# Protocol: PARD3 pulldown assay. Neutravidin agarose beads (Thermo Fisher) matrix with wild-type HEG1 cytoplasmic tail (1274-1381) and ΔYF (1274-1379) were previously described (5, 26). HUVEC were collected in cold lysis buffer (50 mM Tris-HCl, pH 7.4, 100 mM NaCl, 5 mM MgCl2, 0.5% NP-40) plus protease inhibitor cocktail (Roche). A total of 20 μl of HEG1 matrix was added to 600 μg of clarified lysates and incubated at 4° C. overnight while rotating. All conditions contained either vehicle DMSO, 35 μM HKi2 or 35 μM 2-hydroxy-1-naphthoic acid. After three washes with cold lysis buffer, beads were mixed with sample buffer and proteins were separated by SDS-PAGE. Bound PARD3 was detected by using polyclonal Rabbit anti-PARD3 (Millipore, 07-330) antibody.
# [3] = Aqueous solubility in assay buffer; type: physicochemical
# HEG1-KRIT1 interaction = target: T1, HEG1-KRIT1 interaction (Homo sapiens, UniProt O00522); experiment: Flow cytometry assay for the HEG1-KRIT1 FERM domain interaction (competition binding on HEG1 matrix beads); conditions: read-out: IC50
# T1 construct: His6-EGFP-KRIT1 (WT) FERM domain (417-736) and KRIT1 (L717,721A) mutant were cloned into pETM-11; His6 (N); made in house; host or cells: E. coli BL21 Star (DE3)
# T1 sequence (O00522 417-736): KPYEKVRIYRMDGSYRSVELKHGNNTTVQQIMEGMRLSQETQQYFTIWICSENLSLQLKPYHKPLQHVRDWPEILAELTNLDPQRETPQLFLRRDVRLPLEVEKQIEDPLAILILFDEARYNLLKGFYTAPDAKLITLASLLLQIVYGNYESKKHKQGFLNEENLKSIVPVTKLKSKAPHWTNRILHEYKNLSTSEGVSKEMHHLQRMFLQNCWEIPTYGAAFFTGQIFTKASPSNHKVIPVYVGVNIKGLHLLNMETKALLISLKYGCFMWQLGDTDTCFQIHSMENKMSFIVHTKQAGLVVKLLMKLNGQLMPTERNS
# Protocol: Bead Coupling. SPHERO Neutravidin Polystyrene Particles, […] (Spherotech) were washed twice with wash buffer (20 mM Tris, 150 mM NaCl. pH 7.4 containing 0.01% NP-40, and 1 mM EDTA). Prior to incubation with biotin-tagged HEG 1 cytoplasmic tail protein, an appropriate volume of bead slurry was passivated to inhibit non-specific binding by incubation for 30 minutes at room temperature in reaction buffer containing 0.1% BSA (20 mM Tris, 150 mM NaCl, pH 7.4 0.01% NP-40, 1 mM EDTA, 1 mM DTT, and 0.1% BSA). Passivated beads were collected by centrifugation, resuspended to 3,600 particles/μl in reaction buffer and biotinylated HEG1 tail was added to a final concentration of 150 nM and incubated overnight on a rotator at 4° C. The beads were washed three times by centrifugation with ice-cold reaction buffer to remove unbound HEG1 peptide. Beads were diluted such that a final concentration of 2000 beads/μL were available for addition to assay plates.
# Flow cytometry assay. A final volume of 100 μl containing 140 nM EGFP-KRIT1 FERM domain, with 10% DMSO or 10% compounds in DMSO, was incubated for 15 minutes at room temperature on a rotator. 100 μl of beads were added to the mixture for a final volume of 200 μl at 1,000 particles/μl with 70 nM EGFP-KRIT1 and incubated for 15 minutes at room temperature on a rotator. The control beads were: without KRIT1 (minimum signal); with KRIT1 (maximum signal); and with KRIT1 plus 2 μM HEG1 7-mer (positive blocking control). The EGFP fluorescence was measured using a BD Accuri flow cytometer. For screening purposes, the final volume of the reaction was scaled down to 10 μl and samples were processed as previously described (27). For FIGS. 1D-1F, 2B, and 3E, a representative experiment is shown of at the least 3 independent repeats.
# Assay plate assembly. Plate assays were performed in 384-well microtiter plates (Greiner Bio-one, #784101). Reaction buffer. HEG1-coupled beads, and EGFP-KRIT-FERM constructs were added using a MultiFlo™ Microplate Dispenser (BioTek Instruments, Inc.). Compounds were added to single-point assay plates pre-loaded with reaction buffer using a Biomek^NX liquid handler (BeckmanCoulter) equipped with a […] pintool (V & P Scientific, Inc.). Compound libraries were dispensed to a final concentration of 10 μM. An equal volume (10 nL) of DMSO was added to the vehicle control wells. Following the addition of library compounds, 5 μL of assay buffer was added and the plates were mixed before addition of 5 μL of the protein-coupled bead mixtures; Plates were protected from light and incubated on a rotator for 15 minutes at room temperature. Binding of EGFP-KRIT to HEG1 coupled beads was evaluated using an Accuri C6 flow cytometer.
# Data Acquisition. Assay plates were sampled using the HyperCyt™ high throughput flow cytometry platform (Intellicyt; Albuquerque, N. Mex.). During sampling, the probe moves from well to well and samples 1-2 μL from each well pausing 0.4 sec in the air before sampling the next well. The resulting sample stream consisting of 384 separated samples is delivered to an Accuri C6 flow cytometer (BD Biosciences; San Jose, Calif.). Plate data are acquired as time-resolved files that are parsed by software-based well identification algorithms and merged with compound library files. Plate performance was validated using the Z-prime calculation (28).
# Compounds that satisfied hit selection criteria in the primary screen were cherry-picked from compound storage plates and tested to confirm activity and determine potency. Dose response data points were fitted by Prism software (GraphPad Software Inc., San Diego, Calif.) using nonlinear least-squares regression in a sigmoidal dose-response model with variable slope, also known as the 4-parameter logistic equation.
# log P = type: physicochemical; conditions: method not stated (FIG. 2A)
# [4] = Table 2, flow cytometry-screening assay, NI = no inhibition detected up to 500 μM
structure (smiles),measurement,setting,value
"O=Cc1c(O)ccc2ccccc12 [2-hydroxy-1-naphtaldehyde (Hki2), 2-hydroxy-1-naphthaldehyde]",KLF4 and KLF2 mRNA levels,KLF4 and KLF2 mRNA [1],upregulated
same,KLF4 and KLF2 mRNA levels,"KLF4 and KLF2 mRNA [2]; hCMEC/D3, 25 μM, 12 h",upregulated
same,"KLF2 upregulation, fold increase","KLF4 and KLF2 mRNA [2]; hCMEC/D3, 50 μM, 4 h",~1.5 fold
same,"KLF4 upregulation, fold increase","KLF4 and KLF2 mRNA [2]; hCMEC/D3, 50 μM, 4 h",~3.5 fold
same,"KLF2 mRNA levels, fold increase","KLF4 and KLF2 mRNA [2]; hCMEC/D3, 50 μM, 12 h",~2.3 fold
same,"KLF4 mRNA levels, fold increase","KLF4 and KLF2 mRNA [2]; hCMEC/D3, 50 μM, 12 h",~6.5 fold
same,"KLF4 levels, fold increase","KLF4 and KLF2 mRNA [2]; hCMEC/D3, 50 μM, 24 h",~6 fold
same,nuclear EGFP (klf2a reporter) in arterial and venous endothelium,klf2a,increase
same,increase in Akt activation (pAkt-S473),PI3K/Akt signaling; Western blot,2.2 fold
same,increase in PI3K activity,PI3K/Akt signaling; phospho-p85,2 fold
same,VEGFA gene expression,"HUVEC; 75 μM, 24 h, RNA-seq",upregulation
same,genes differentially expressed between treatment and vehicle control,"HUVEC; 75 μM, 24 h, corrected P<0.05, ≥2.5-fold change",457 genes
same,"CCL2 (Monocyte chemoattractant protein) expression, ratio experimental/control FPKM","HUVEC; 75 μM, RNA-Seq, n=3",−7.95
same,"CXCR4 (C-X-C chemokine receptor type 4) expression, ratio experimental/control FPKM","HUVEC; 75 μM, RNA-Seq, n=3",−4.41
same,"KLF2 expression, ratio experimental/control FPKM","HUVEC; 75 μM, RNA-Seq, n=3",3.07
same,"KLF4 expression, ratio experimental/control FPKM","HUVEC; 75 μM, RNA-Seq, n=3",3.89
same,"THBD (Thrombomodulin) expression, ratio experimental/control FPKM","HUVEC; 75 μM, RNA-Seq, n=3",8.34
same,"THBSI (Thrombospondin 1) expression, ratio experimental/control FPKM","HUVEC; 75 μM, RNA-Seq, n=3",−5.78
same,PARD3 binding to HEG1,PARD3 binding to HEG1,no effects
same,solubility in aqueous solution,"[3]; qualitative, compared with HKi1",largely improved
"O=C(O)c1c(O)ccc2ccccc12 [Compound 9, 2-hydroxy-1-naphthoic acid]",KLF4 or KLF2 elevation,"KLF4 and KLF2 mRNA [2]; hCMEC/D3, 25 μM, 4 hours",did not elevate
same,pIC50,HEG1-KRIT1 interaction; [4],< 3.30
same,effects on gene expression by RNA-Seq,HUVEC,no significant effects
same,PARD3 binding to HEG1,PARD3 binding to HEG1,no effects
"Oc1ccc2ccccc2c1 [Compound 10, naphthalene-2-ol]",pIC50,HEG1-KRIT1 interaction; [4],< 3.30
same,effects on gene expression by RNA-Seq,HUVEC,no significant effects
"CC(NC(=O)c1ccccc1N=Cc1c(O)ccc2ccccc12)c1ccccc1 (centres unmarked) [Sirtinol (Hki1), 2-[[(2-hydroxy-1-naphthalenyl)methylene]amino]-N-(1-phenylethyl)-benzamide, reference compound]",logP,log P,5.7
same,pIC50,"HEG1-KRIT1 interaction; inhibition of the HEG1-KRIT1 interaction, flow cytometry assay",~5.00
same,solubility,"[3]; assay buffer, aqueous buffer, in the buffer conditions of the assay",< 50 µM
